Data published in patent publication US9199962B2, “Substituted azaheterocycles for the treatment of cancer” (Merck Patent GmbH, priority 2011, dated 2015).
Like-named read-outs stand apart in the source and are kept apart here.

Key:
[1] = molecular target: T1, focal adhesion kinase (FAK) autophosphorylation at tyrosine 397 in HT29 cells (Homo sapiens, UniProt Q05397); test: Cellular testing of FAK inhibitors: FAK autophosphorylation at tyrosine 397 in HT29 cells (Luminex-based assay); format: cell-based; conditions: Table 2, phospho-Y397-FAK, 30 min serum-free, read-out: HT-29 IC50
T1 construct: endogenous in cells; host or cells: HT29
Experimental: 2. Assay Principle for Celluar Testing of FAK Inhibitors
Cellular activity of focal adhesion kinase (FAK) is determined by the degree of FAK autophosphorylation at tyrosine 397 using a Luminex-based assay. HT29 cells are plated with 30,000 cells per well of a 96-well plate in 100 μl medium (90% DMEM/10% FCS). At the following day, test compounds are added in a serial dilution under serum-free conditions for 30 min. Then, cells were lysed with 90 μl lysis buffer (20 mM Tris/HCl pH 8.0, 150 mM NaCl, 1% NP40, 10% Glycerol, 1% Phosphatase-Inhibitor II, 20 mM […]-Glycerolphosphat, 0.1% Protease-Inhibitor Cocktail III, 0.01% Benzonase) and lysates were cleared by centrifugation through a 96-well filter plate (0.65 μm). Samples were incubated with Luminex-beads which were coupled with an anti-total FAK antibody overnight at 4° C. with under gentle agitation. For detection of phospho-Y397-FAK a phosphospecific antibody and a species specific PE-labeled secondary antibody are added. The amount of phospho-Y397-FAK is determined in a Luminex100 machine measuring 100 events per well within 60 seconds.
Counts from samples treated with a FAK reference inhibitor are subtracted as pharmacological blank. Counts from samples treated with test compounds are calculated as percent of control from solvent treated (0.3% DMSO) samples. IC50 values were determined using AssayExplorer software.

[2] = molecular target: T2, GST-FAK (N-terminal GST fusion with truncated human FAK (376-1052 (end) amino acids)) (Homo sapiens, UniProt Q05397); test: Biochemical enzyme assay for FAK activity (Caliper LC3000 mobility shift); conditions: 100 uM ATP, read-out: FAK IC50
T2 construct: truncated human FAK (376-1052 (end) amino acids)
Procedure, shortened: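 Inhibitor dose series in DMSO were incubated 90 min at 25 °C with truncated GST-tagged human FAK (0.067 ng/µl) and FITC-labelled peptide substrate (1 µM), with ATP at 100 µM and FERM peptide at 1 mM (pH 7.5 HEPES). After EDTA quench, phosphorylated and unphosphorylated peptides were resolved electrophoretically. Percent conversion was fitted for IC50.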

T1 sequence (Q05397 whole entry): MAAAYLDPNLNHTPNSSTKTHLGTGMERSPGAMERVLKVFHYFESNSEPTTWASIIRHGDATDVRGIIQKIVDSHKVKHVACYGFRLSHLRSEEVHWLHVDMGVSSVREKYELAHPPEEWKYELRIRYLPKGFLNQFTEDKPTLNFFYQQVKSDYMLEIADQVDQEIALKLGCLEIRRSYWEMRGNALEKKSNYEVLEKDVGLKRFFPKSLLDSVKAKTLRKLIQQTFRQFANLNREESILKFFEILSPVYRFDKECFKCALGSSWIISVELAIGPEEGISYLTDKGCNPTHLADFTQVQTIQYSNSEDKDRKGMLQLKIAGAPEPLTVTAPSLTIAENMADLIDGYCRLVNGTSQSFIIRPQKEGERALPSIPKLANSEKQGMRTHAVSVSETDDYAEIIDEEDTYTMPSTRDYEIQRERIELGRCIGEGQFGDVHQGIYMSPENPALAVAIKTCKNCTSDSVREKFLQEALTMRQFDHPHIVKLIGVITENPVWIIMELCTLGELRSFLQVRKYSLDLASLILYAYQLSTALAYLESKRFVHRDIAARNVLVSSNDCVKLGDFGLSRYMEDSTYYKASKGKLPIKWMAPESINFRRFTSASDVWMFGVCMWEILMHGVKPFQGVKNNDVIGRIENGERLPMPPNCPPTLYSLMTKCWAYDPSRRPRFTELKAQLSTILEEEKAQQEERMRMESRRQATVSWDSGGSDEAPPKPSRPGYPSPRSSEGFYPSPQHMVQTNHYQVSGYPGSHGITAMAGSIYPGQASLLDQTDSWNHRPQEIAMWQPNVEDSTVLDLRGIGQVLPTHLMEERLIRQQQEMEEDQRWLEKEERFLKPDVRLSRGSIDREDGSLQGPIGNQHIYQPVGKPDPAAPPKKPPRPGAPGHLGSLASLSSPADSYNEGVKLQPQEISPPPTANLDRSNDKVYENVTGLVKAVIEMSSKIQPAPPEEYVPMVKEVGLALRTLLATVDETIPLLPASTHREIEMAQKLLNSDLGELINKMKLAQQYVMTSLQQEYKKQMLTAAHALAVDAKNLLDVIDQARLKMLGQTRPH
T2 sequence (Q05397 376-1052): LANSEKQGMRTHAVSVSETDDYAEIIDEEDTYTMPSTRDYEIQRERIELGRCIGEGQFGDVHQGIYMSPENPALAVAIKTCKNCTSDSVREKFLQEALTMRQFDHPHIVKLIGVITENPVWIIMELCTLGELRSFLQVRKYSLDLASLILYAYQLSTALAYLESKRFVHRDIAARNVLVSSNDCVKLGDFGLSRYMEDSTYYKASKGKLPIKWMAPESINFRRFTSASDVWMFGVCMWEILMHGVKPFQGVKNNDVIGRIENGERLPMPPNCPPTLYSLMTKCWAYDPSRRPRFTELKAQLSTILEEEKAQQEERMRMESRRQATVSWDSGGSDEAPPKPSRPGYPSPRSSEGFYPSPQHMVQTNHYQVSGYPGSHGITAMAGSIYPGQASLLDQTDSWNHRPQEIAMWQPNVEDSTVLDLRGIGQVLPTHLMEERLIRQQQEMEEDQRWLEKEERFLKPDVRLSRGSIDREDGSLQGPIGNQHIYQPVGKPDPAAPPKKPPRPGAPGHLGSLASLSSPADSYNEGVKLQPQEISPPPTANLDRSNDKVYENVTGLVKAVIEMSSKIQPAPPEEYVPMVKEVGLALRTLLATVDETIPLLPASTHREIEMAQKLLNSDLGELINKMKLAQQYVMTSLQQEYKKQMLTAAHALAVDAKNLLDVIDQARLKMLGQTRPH

Row | Structure (SMILES) | IC50 [1] | IC50 ([2]; Table 2) | IC50 ([2]; Table 5)
1 | NC(=O)CCNC(=O)c1cc(NCc2ccc(F)cc2F)nc(-c2cncc(C(F)(F)F)c2)n1 [Compound 41, 6-(2,4-Difluoro-benzylamino)-2-(5-trifluoromethyl-pyridin-3-yl)-pyrimidine-4-carboxylic acid (2-carbamoyl-ethyl)-amide] | 0.1 to 1 µM | < 0.1 µM | 
2 | CCN(CC)C(=O)CCNC(=O)c1cc(NCc2ccc(F)cc2F)nc(-c2cncc(C(F)(F)F)c2)n1 [Compound 42, 6-(2,4-Difluoro-benzylamino)-2-(5-trifluoromethyl-pyridin-3-yl)-pyrimidine-4-carboxylic acid (2-diethylcarbamoyl-ethyl)-amide] | 1 to 10 µM | < 0.1 µM | 
3 | O=C(NCCC(=O)N1CCOCC1)c1cc(NCc2ccc(F)cc2F)nc(-c2cncc(C(F)(F)F)c2)n1 [Compound 43, 6-(2,4-Difluoro-benzylamino)-2-(5-trifluoromethyl-pyridin-3-yl)-pyrimidine-4-carboxylic acid (3-morpholin-4-yl-3-oxo-propyl)-amide] | 1 to 10 µM | < 0.1 µM | 
4 | CN1CCN(C(=O)CCNC(=O)c2cc(NCc3ccc(F)cc3F)nc(-c3cncc(C(F)(F)F)c3)n2)CC1 [Compound 44, 6-(2,4-Difluoro-benzylamino)-2-(5-trifluoromethyl-pyridin-3-yl)-pyrimidine-4-carboxylic acid [3-(4-methyl-piperazin-1-yl)-3-oxo-propyl]-amide] | 1 to 10 µM | < 0.1 µM | 
5 | CN(C)CCCNC(=O)c1cc(NCc2ccc(F)cc2F)nc(-c2cncc(C(F)(F)F)c2)n1 [Compound 45, 6-(2,4-Difluoro-benzylamino)-2-(5-trifluoromethyl-pyridin-3-yl)-pyrimidine-4-carboxylic acid (3-dimethylamino-propyl)-amide] | 1 to 10 µM | < 0.1 µM | 
6 | O=C(NCCCn1ccnc1)c1cc(NCc2ccc(F)cc2F)nc(-c2cncc(C(F)(F)F)c2)n1 [Compound 46, 6-(2,4-Difluoro-benzylamino)-2-(5-trifluoromethyl-pyridin-3-yl)-pyrimidine-4-carboxylic acid (3-imidazol-1-yl-propyl)-amide] | 1 to 10 µM | < 0.1 µM | 
7 | O=C(NCCCN1CCCC1=O)c1cc(NCc2ccc(F)cc2F)nc(-c2cncc(C(F)(F)F)c2)n1 [Compound 47, 6-(2,4-Difluoro-benzylamino)-2-(5-trifluoromethyl-pyridin-3-yl)-pyrimidine-4-carboxylic acid [3-(2-oxo-pyrrolidin-1-yl)-propyl]-amide] | 0.1 to 1 µM | < 0.1 µM | 
8 | O=C(NCCCN1CCOCC1)c1cc(NCc2ccc(F)cc2F)nc(-c2cncc(C(F)(F)F)c2)n1 [Compound 48, 6-(2,4-Difluoro-benzylamino)-2-(5-trifluoromethyl-pyridin-3-yl)-pyrimidine-4-carboxylic acid (3-morpholin-4-yl-propyl)-amide] | > 10 µM | < 0.1 µM | 
9 | NC(=O)C1CCN(C(=O)c2cc(NCc3ccc(F)cc3F)nc(-c3cncc(C(F)(F)F)c3)n2)CC1 [Compound 49, 1-[6-(2,4-Difluoro-benzylamino)-2-(5-trifluoromethyl-pyridin-3-yl)-pyrimidine-4-carbonyl]-piperidine-4-carboxylic acid amide] | 1 to 10 µM | < 0.1 µM | 
10 | NC(=O)C1CCCN(C(=O)c2cc(NCc3ccc(F)cc3F)nc(-c3cncc(C(F)(F)F)c3)n2)C1 (stereo not shown) [Compound 50, 1-[6-(2,4-Difluoro-benzylamino)-2-(5-trifluoromethyl-pyridin-3-yl)-pyrimidine-4-carbonyl]-piperidine-3-carboxylic acid amide] | 1 to 10 µM | < 0.1 µM | 
11 | CN1CCC(CNC(=O)c2cc(NCc3ccc(F)cc3F)nc(-c3cncc(C(F)(F)F)c3)n2)C1 (stereo not shown) [Compound 51, 6-(2,4-Difluoro-benzylamino)-2-(5-trifluoromethyl-pyridin-3-yl)-pyrimidine-4-carboxylic acid (1-methyl-pyrrolidin-3-ylmethyl)-amide] | 1 to 10 µM | < 0.1 µM | 
12 | O=C(NCCc1c[nH]cn1)c1cc(NCc2ccc(F)cc2F)nc(-c2cncc(C(F)(F)F)c2)n1 [Compound 52, 6-(2,4-Difluoro-benzylamino)-2-(5-trifluoromethyl-pyridin-3-yl)-pyrimidine-4-carboxylic acid [2-(1H-imidazol-4-yl)-ethyl]-amide] | 1 to 10 µM | < 0.1 µM | 
13 | CN(C)CCCCNC(=O)c1cc(NCc2ccc(F)cc2F)nc(-c2cncc(C(F)(F)F)c2)n1 [Compound 53, 6-(2,4-Difluoro-benzylamino)-2-(5-trifluoromethyl-pyridin-3-yl)-pyrimidine-4-carboxylic acid (4-dimethylamino-butyl)-amide] | 1 to 10 µM | < 0.1 µM | 
14 | O=C(c1cc(NCc2ccc(F)cc2F)nc(-c2cncc(C(F)(F)F)c2)n1)N1CCOCC1 [Compound 260, [6-(2,4-Difluoro-benzylamino)-2-(5-trifluoromethyl-pyridin-3-yl)-pyrimidin-4-yl]-morpholin-4-yl-methanone] |  |  | < 0.1 µM
15 | O=C(Nc1cccnc1)c1cc(NCc2ccc(F)cc2F)nc(-c2cncc(C(F)(F)F)c2)n1 [Compound 261, 6-(2,4-Difluoro-benzylamino)-2-(5-trifluoromethyl-pyridin-3-yl)-pyrimidine-4-carboxylic acid pyridin-3-ylamide] |  |  | 0.1 to 1 µM
16 | CNC(=O)C1(NC(=O)c2cc(NCc3ccc(F)cc3F)nc(-c3cncc(C(F)(F)F)c3)n2)CC1 [Compound 262, 6-(2,4-Difluoro-benzylamino)-2-(5-trifluoromethyl-pyridin-3-yl)-pyrimidine-4-carboxylic acid (1-methylcarbamoyl-cyclopropyl)-amide] |  |  | 0.1 to 1 µM
17 | CC(NC(=O)c1cc(NCc2ccc(F)cc2F)nc(-c2cncc(C(F)(F)F)c2)n1)C(N)=O (stereo not shown) [Compound 263, 6-(2,4-Difluoro-benzylamino)-2-(5-trifluoromethyl-pyridin-3-yl)-pyrimidine-4-carboxylic acid (1-carbamoyl-ethyl)-amide] |  |  | < 0.1 µM
18 | CN(C)C(=O)c1cc(NCc2ccc(F)cc2F)nc(-c2cncc(C(F)(F)F)c2)n1 [Compound 264, 6-(2,4-Difluoro-benzylamino)-2-(5-trifluoromethyl-pyridin-3-yl)-pyrimidine-4-carboxylic acid dimethylamide] |  |  | < 0.1 µM
19 | CN(c1ncccc1CNc1ccnc(-c2cncc(C(F)(F)F)c2)n1)S(C)(=O)=O [Compound 265, N-Methyl-N-(3-{[2-(5-trifluoromethyl-pyridin-3-yl)-pyrimidin-4-ylamino]-methyl}-pyridin-2-yl)-methanesulfonamide] |  |  | 1 to 10 µM
20 | Fc1ccc(CNc2cc(-c3cncc(C(F)(F)F)c3)nc(-c3cncc(C(F)(F)F)c3)n2)c(F)c1 [Compound 266, [2,6-Bis-(5-trifluoromethyl-pyridin-3-yl)-pyrimidin-4-yl]-(2,4-difluoro-benzyl)-amine] |  |  | 1 to 10 µM
21 | CC(Nc1ccnc(-c2cncc(C(F)(F)F)c2)n1)c1ccccc1F (stereo not shown) [Compound 267, [1-(2-Fluoro-phenyl)-ethyl]-[2-(5-trifluoromethyl-pyridin-3-yl)-pyrimidin-4-yl]-amine] |  |  | 0.1 to 1 µM
22 | CNC(=O)C(Nc1ccnc(-c2cncc(C(F)(F)F)c2)n1)c1ccccc1 (stereo not shown) [Compound 268, N-Methyl-2-phenyl-2-[2-(5-trifluoromethyl-pyridin-3-yl)-pyrimidin-4-ylamino]-acetamide] |  |  | 1 to 10 µM
23 | CNC(=O)C(Nc1ccnc(-c2cncc(C(F)(F)F)c2)n1)c1ccc(O)cc1 (stereo not shown) [Compound 269, 2-(4-Hydroxy-phenyl)-N-methyl-2-[2-(5-trifluoromethyl-pyridin-3-yl)-pyrimidin-4-ylamino]-acetamide] |  |  | > 10 µM
24 | C[C@@H](Nc1ccnc(-c2cncc(C(F)(F)F)c2)n1)c1ccc(F)cc1 [Compound 270, [(R)-1-(4-Fluoro-phenyl)-ethyl]-[2-(5-trifluoromethyl-pyridin-3-yl)-pyrimidin-4-yl]-amine] |  |  | 0.1 to 1 µM
25 | OC[C@H](Nc1ccnc(-c2cncc(C(F)(F)F)c2)n1)c1ccccc1 [Compound 271, (R)-2-Phenyl-2-[2-(5-trifluoromethyl-pyridin-3-yl)-pyrimidin-4-ylamino]-ethanol] |  |  | 0.1 to 1 µM
26 | O=C(O)c1cc(NCc2ccc(F)cc2F)nc(-c2cncc(C(F)(F)F)c2)n1 [Compound 272, 6-(2,4-Difluoro-benzylamino)-2-(5-trifluoromethyl-pyridin-3-yl)-pyrimidine-4-carboxylic acid] |  |  | 0.1 to 1 µM
27 | COC(=O)c1cc(NCc2ccc(F)cc2F)nc(-c2cncc(C(F)(F)F)c2)n1 [Compound 273, 6-(2,4-Difluoro-benzylamino)-2-(5-trifluoromethyl-pyridin-3-yl)-pyrimidine-4-carboxylic acid methyl ester] |  |  | 0.1 to 1 µM
